Test results reported in US11259516B2, “Method and apparatus for capsular delivery to plants” (priority 2017, dated 2022).

Experiments:
[1] = system: Harungana madagarcariensis (Harungana); design: key: X indicates that the given herbicide is suitable for controlling the given weed; settings: cited from earlier work
[2] = system: Triadica sebifera (Chinese tallow tree); design: key: X indicates that the given herbicide is suitable for controlling the given weed; settings: cited from earlier work
[3] = system: Pittosporum undulatum (Sweet pittosporum); design: key: X indicates that the given herbicide is suitable for controlling the given weed; settings: cited from earlier work
Lantana camara (Lantana) = system: Lantana camara (Lantana); design: key: X indicates that the given herbicide is suitable for controlling the given weed; settings: cited from earlier work
[4] = system: Leptospermum spp. (Tea trees); design: key: X indicates that the given herbicide is suitable for controlling the given weed; settings: cited from earlier work
[5] = system: Tabebuia aurea (Tabebuia); design: key: X indicates that the given herbicide is suitable for controlling the given weed; settings: cited from earlier work
Salix species (Willows) = system: Salix species (Willows); design: key: X indicates that the given herbicide is suitable for controlling the given weed; settings: cited from earlier work
Acer negudo (Box elder) = system: Acer negudo (Box elder); design: key: X indicates that the given herbicide is suitable for controlling the given weed; settings: cited from earlier work
[6] = system: Rubus anglocandicans (Blackberry); design: key: X indicates that the given herbicide is suitable for controlling the given weed; settings: cited from earlier work
[7] = system: Schefflera actinophyla (Umbrella tree); design: key: X indicates that the given herbicide is suitable for controlling the given weed; settings: cited from earlier work
Acacia spp (Wattles) = system: Acacia spp (Wattles); design: key: X indicates that the given herbicide is suitable for controlling the given weed; settings: cited from earlier work
[8] = system: Ligustrum lucidum (Broad leaf privet); design: key: X indicates that the given herbicide is suitable for controlling the given weed; settings: cited from earlier work
[9] = system: Ricinus communis (Castor oil plant); design: key: X indicates that the given herbicide is suitable for controlling the given weed; settings: in vivo; cited from earlier work
[10] = system: Erythrina crista-galli (Cockspur coral tree); design: key: X indicates that the given herbicide is suitable for controlling the given weed; settings: cited from earlier work
[11] = system: Senna pendula (Winter senna); design: key: X indicates that the given herbicide is suitable for controlling the given weed; settings: cited from earlier work
[12] = system: Miconia calvescens (Velvet tree); design: key: X indicates that the given herbicide is suitable for controlling the given weed; settings: cited from earlier work
[13] = system: Eucalyptus saligna (Sydney Blue Gum); experiment: Case 2: thinning of plantation grown Eucalyptus saligna with Di-Bak G, field trial; format: in vivo; settings: at four months, on average a capsule every 13-14 cm of stem circumference
Experimental: Generally, one capsule was inserted per 10 cm stem circumference.
Tree health was assessed on a 0-4 scale, 0 being dead and 4 being healthy. Observations were made for evidence of ‘flashback’ in nearby untreated trees.
A trial was established on Brooklyn Station, Upper Tooloom, near Urbenville on 25 May 2017. GPS co-ordinates of the first treated plot were S28° 32.486′ E152° 24.782′. […] Trees were 6-10 m tall. Desirable trees were marked and the other trees were treated.
The trial consisted of four replicates with 15 trees per replicate. The number of capsules applied to each tree was dependent on tree circumference which was measured at chest height. The tree circumferences range was from 18 to 57 cm. Tree health was assessed at 4 months (25 Aug. 2017) and 7 months (20 Dec. 2017). Samples were collected for observation of dissolution of capsule and herbicide. Rainfall data for the closest recording station (Urbenville) was taken from the Bureau of Meteorology (BOM) internet site. No recent temperature data records were available for this site.

Phoenix spp (Palms) = system: Phoenix spp (Palms); design: key: X indicates that the given herbicide is suitable for controlling the given weed; settings: cited from earlier work
[14] = system: Crataegus sinaica (Azarola); design: key: X indicates that the given herbicide is suitable for controlling the given weed; settings: cited from earlier work
[15] = system: Erythrina sykesii (Coral tree); design: key: X indicates that the given herbicide is suitable for controlling the given weed; settings: cited from earlier work
[16] = system: Inga edulis (Icecream tree); design: key: X indicates that the given herbicide is suitable for controlling the given weed; settings: cited from earlier work

O=C(O)CNCP(=O)(O)O [Glyphosate]
suitability of herbicide for control of weed [1]: X
suitability of herbicide for control of weed [2]: X
suitability of herbicide for control of weed [3]: X
suitability of herbicide for control of weed (Lantana camara (Lantana)): X
suitability of herbicide for control of weed [4]: X
suitability of herbicide for control of weed [5]: X
suitability of herbicide for control of weed (Salix species (Willows)): X
suitability of herbicide for control of weed (Acer negudo (Box elder)): X
suitability of herbicide for control of weed [6]: X
suitability of herbicide for control of weed [7]: X
suitability of herbicide for control of weed (Acacia spp (Wattles)): X
suitability of herbicide for control of weed [8]: X
suitability of herbicide for control of weed [9]: X
suitability of herbicide for control of weed [10]: X
suitability of herbicide for control of weed [11]: X
suitability of herbicide for control of weed [12]: X
mortality [13]: over 90%
suitability of herbicide for control of weed (Phoenix spp (Palms)): X
suitability of herbicide for control of weed [14]: X
suitability of herbicide for control of weed [15]: X
suitability of herbicide for control of weed [16]: X
